According to the NIST ThermoML archive (doi:10.1016/j.tca.2006.04.011):
± gives the expanded uncertainty stated by the source.

Assays:
[1] = Molar enthalpy of transition or fusion; conditions: DSC
[2] = DTA

Row | SMILES | Molar enthalpy of transition or fusion ([1]; Crystal 1) | Triple point temperature ([2]; Crystal 1) | Molar enthalpy of transition or fusion ([1]; Crystal 2) | Molar enthalpy of transition or fusion ([1]; Crystal 3) | Triple point temperature ([2]; Crystal 2) | Triple point temperature ([2]; Crystal 3)
1 | Clc1cc(Cl)c2cc(Cl)c(Cl)c(Cl)c2c1 [1,2,3,5,7-pentachloronaphthalene] | 6.15 ± 0.213 kcal/mol | 444.85 ± 3.2 K |  |  |  | 
2 | Clc1cc2c(Cl)ccc(Cl)c2c(Cl)c1Cl [1,2,3,5,8-pentachloronaphthalene] | 2.02 ± 0.179 kcal/mol | 453.25 ± 3.2 K | 0.22 ± 0.172 kcal/mol | 3.44 ± 0.189 kcal/mol | 443.35 ± 3.2 K | 387.75 ± 3.2 K
3 | Clc1cc(Cl)c2c(Cl)c(Cl)cc(Cl)c2c1Cl [1,2,4,5,6,8-hexachloronaphthalene] | 6.9 ± 0.22 kcal/mol | 449.35 ± 3.2 K |  |  |  | 
4 | Clc1cc(Cl)c2c(Cl)c(Cl)ccc2c1Cl [1,2,4,5,6-pentachloronaphthalene] | 2.01 ± 0.179 kcal/mol | 412.65 ± 3.2 K | 3.74 ± 0.191 kcal/mol |  | 404.15 ± 3.2 K | 
5 | Clc1cc(Cl)c2c(Cl)c(Cl)cc(Cl)c2c1 [1,2,4,6,8-pentachloronaphthalene] | 4.72 ± 0.198 kcal/mol | 428.95 ± 3.2 K |  |  |  | 
6 | Clc1cc(Cl)c2cc(Cl)cc(Cl)c2c1 [1,3,5,7-tetrachloronaphthalene] | 6.49 ± 0.215 kcal/mol | 452.95 ± 3.2 K |  |  |  | 
7 | Clc1cc2c(Cl)c(Cl)c(Cl)c(Cl)c2c(Cl)c1Cl [naphthalene, 1,2,3,4,5,6,7-heptachloro-] | 2.09 ± 0.179 kcal/mol | 455.95 ± 3.2 K | 2.04 ± 0.179 kcal/mol |  | 454.45 ± 3.2 K | 
8 | Clc1c(Cl)c(Cl)c2ccccc2c1Cl [naphthalene, 1,2,3,4-tetrachloro-] | 2.76 ± 0.184 kcal/mol | 470.75 ± 3.2 K | 0.318 ± 0.172 kcal/mol | 2.52 ± 0.182 kcal/mol | 454.25 ± 3.2 K | 440.45 ± 3.2 K
9 | Clc1cc2cc(Cl)c(Cl)c(Cl)c2cc1Cl [naphthalene, 1,2,3,6,7-pentachloro-] | 5.48 ± 0.206 kcal/mol | 416.55 ± 3.2 K |  |  |  | 
10 | Clc1cc2ccc(Cl)c(Cl)c2c(Cl)c1Cl [naphthalene, 1,2,3,7,8-pentachloro-] | 4.19 ± 0.194 kcal/mol | 381.55 ± 3.2 K |  |  |  | 
11 | Clc1cc2ccccc2c(Cl)c1Cl [naphthalene, 1,2,3-trichloro-] | 4.41 ± 0.196 kcal/mol | 354.65 ± 3.2 K |  |  |  | 
12 | Clc1cc2c(Cl)cc(Cl)c(Cl)c2cc1Cl [naphthalene, 1,2,4,6,7-pentachloro-] | 5.4 ± 0.206 kcal/mol | 404.25 ± 3.2 K |  |  |  | 
13 | Clc1ccc2ccc(Cl)c(Cl)c2c1Cl [naphthalene, 1,2,7,8-tetrachloro-] | 3.49 ± 0.189 kcal/mol | 401.25 ± 3.2 K |  |  |  | 
